Source: patent publication US9321751B2, “Piperine derivatives and uses thereof” (INDUSTRY-ACADEMIC COOPERATION FOUNDATION, YONSEI UNIVERSITY, priority 2012, dated 2016)

Tests used:
[1] = tested on: 3T3-L1 cells as preadipocytes; assay: Inhibition of adipocyte differentiation, Oil-Red O staining; assay type: cell-based, Mouse; conditions: treated every other day from day 0 of differentiation, 14 days culture, different concentrations
Procedure: Mouse adipocyte line (3T3-L1) was used to evaluate effects of various piperine-based compounds on adipocyte differentiation and growth. 3T3-L1 cells as preadipocytes were dispensed on a 12-well plate, and cultured in a 5% CO2 incubator using DMEM medium supplemented with 1% penicillin-streptomycin, 1% non-essential amino acids, and 10% FBS. The cultured 3T3-L1 cells were made into differentiated adipocytes by being cultured for […] in a medium containing 0.5 mM […], 1 μM dexamethasone (MDI), and 1 μg/mL insulin, and then differentiated into mature adipocytes by being further cultured in a medium 1 μg/mL insulin. After that, they were further cultured for 10 days while changing the DMEM culture liquid every other day to obtain fully differentiated adipocytes.
The culture liquid was treated with 13 new compounds with different concentrations every other day from day 0 when DMI was added to the 3T3-L1 cells for differentiation. Derivative compounds were dissolved in DMSO before the use thereof, and a negative control group added with only DMSO was included in the experiment.
After the culturing for a total of 14 days, the culture liquids were removed when the cells were fully differentiated, and fat spheres contained in the differentiated adipocytes were stained. For this, the cells were washed 2 times with phosphate buffered saline (PBS), immobilized in 10% buffered neutral formalin for 1 hour, washed again once with PBS, stained for 1 hour by adding 1 mL of Oil-Red-O, which specifically stains fats red, to the 12-well plate, and then washed 2 times with distilled water. In order to measure the level of triglyceride contained in the differentiated 3T3-L1 cells, the stained cells were dissolved in 1 mL of iso-butanol and the OD value was measured at 600 nm.

[2] = tested on: C57BL/6J mice; assay: Oral glucose tolerance test in mice fed test diets; assay type: in vivo; conditions: 8 weeks of diet
Procedure: After 8 weeks of experimental diet, the oral glucose tolerance test was performed on all groups. After 6 hours of fasting, the mice were orally administered with glucose (2 g glucose/10 ml of distilled water/kg body weight). Before the oral administration of glucose, at 15, 30, 60, and 120 min after the administration of glucose, blood samples were taken from the tail cut (by removing the distal 1 cm of the tail) and blood glucose concentrations were measured using a blood glucose monitoring device.

[3] = tested on: C57BL/6J mice; assay: Biochemical analysis of blood (plasma lipids, ALT, AST) of mice fed test diets; assay type: in vivo; conditions: 0.05% in high-fat diet, 10 weeks
Procedure: (§1) 5-week-old male C57BL/6J mice (Orient, Korea) were accustomed to the laboratory environment for 1 week while feeding solid feed. Then, they were randomly divided into normal diet group, high-fat diet control group and test group of 3 types and control drug group of 2 types. They were bred for a total of 10 weeks (n=8/group). The diet was given between 10 and 11 a.m. every day together with water. Diet intake was measured every day and body weight was measured every week. In order to avoid transient body weight increase after feed intake, body weight was measured 2 hours after removing the feed. After fasting the test animal for at least 12 hours and anesthetizing with diethyl ether, blood, liver and visceral fat (epididymal fat, perirenal fat, mesenteric fat and retroperitoneal fat) were taken and weighed after washing with 0.1 M PBS (pH 7.4). Blood taken from the abdominal aorta was centrifuged at 1000×g for 15 minutes to separate the serum.
After 10 weeks of breeding, total cholesterol, triglyceride and glucose levels in the plasma and lipid levels in the liver tissue were measured as follows. Total cholesterol, triglyceride, free fatty acid and glucose levels in the plasma were measured twice for each using a commercially available kit (Bio Clinical System). The activity of ALT (alanine aminotransferase) and AST (aspartate aminotransferase) used as liver function indicator were measured twice for each using a commercially available kit (Bio Clinical System, Korea).

[4] = tested on: C57BL/6J mice; assay: Liver weight and lipid level in liver tissues of mice fed test diets; assay type: in vivo; conditions: 0.05% in high-fat diet, 10 weeks
Procedure: as §1
Lipids were extracted from the liver tissue according to Folch et al.'s method Folch J et al., J Biol. Chem. 226: 497-509 (1957)). After adding 1 mL of distilled water to 0.25 g of liver tissue, the liver tissue was homogenized using a Polytron homogenizer (IKA-Werke GmbH & Co., Ultra-Turrax, Staufen, Germany). After adding 5 mL of chloroform:methanol solution (2:1, v/v) to the homogenate and mixing well, the mixture was centrifuged at 1000×g for 10 minutes. After adding 2 mL of chloroform:methanol solution (2:1, v/v) again to the supernatant, the same procedure was repeated to completely separate the lipid components of the liver. After adding 3 mL of chloroform:methanl:0.05% CaCl2 (3:48:47, v/v/v) solution to the remaining pellets and mixing well for 1 minute, followed by centrifugation at 1000×g for 10 minutes, the resulting pellets were completely dried with nitrogen gas. The dried lipids were dissolved in 1 mL of methanol and then analyzed.
The same kit (Bio Clinical System) as that used for the plasma analysis was used to measure the triglyceride and cholesterol levels of the liver tissue.

[5] = tested on: C57BL/6J mice; assay: Body weight and visceral fat weight of mice fed high-fat test diets (LJ-2498 study); assay type: in vivo; conditions: 0.05% in high-fat diet, 10 weeks
Procedure: The obesity-inducing diet used in this example was high-fat diet (HFD: 40% fat calorie, 17 g lard+3% corn oil/100 g diet). LJ-2498 chemical (JL-2498) or piperine (Pin)-containing diet had the same composition as HFD, except that LJ-2498 chemical was included at 0.05%. As control drugs, metformin (Metf) as a diabetic treatment in a level of 0.1% and sibutramine as an obesity treatment in a level of 0.1% were added to a high-fat diet. A normal diet group (Chow) was fed with commercial rodent feedstuff.
as §1

[6] = tested on: C57BL/6J mice; assay: Body and visceral fat-pad weights of mice fed high-fat test diets (LJ-2529 study); assay type: in vivo; conditions: 14 weeks; for decrease of daily food intake: supplemented high-fat diet
Procedure: The obesity-inducing control diet used in the test was high-fat diet (HFD: 40% fat calorie, 17 g lard+3% corn oil/100 g diet). Diets supplemented with LJ-2529 compound or piperine had the same composition as HFD, except that LJ-2529 was included at 0.05%.
5-week-old male C57BL/6J mice (Orient, Korea) were accustomed to the laboratory environment for 1 week while feeding solid feed. […] The diet was given between 10 and 11 a.m. every day together with water. Food intake was measured every day and body weight was measured once a week. In order to avoid transient body weight increase after feed intake, body weight was measured 2 hours after removing the feed. After fasting the test animal for at least 12 hours and anesthetizing with diethyl ether, blood, liver and visceral fat (epididymal fat, perirenal fat, mesenteric fat and retroperitoneal fat) were taken and weighed after washing with 0.1M PBS (pH 7.4). Blood taken from the abdominal aorta was centrifuged at 1000×g for 15 minutes for the separation of plasma.

CC(=O)OC/C=C/c1ccc2c(c1)OCO2 [LJ-2196, (E)-3-(benzo[d][1,3]dioxo-5-yl)allyl acetate]
differentiation of the preadipocytes 3T3L1 [1]: reduced the differentiation of the preadipocytes 3T3L1 in a concentration-dependent manner

C(=N\c1ccccc1)/c1ccc2c(c1)OCO2 [LJ-2477, (E)-N-(benzo[d][1,3]dioxol-5-ylmethylene)aniline]
differentiation of the preadipocytes 3T3L1 [1]: reduced the differentiation of the preadipocytes 3T3L1 in a concentration-dependent manner

O=C(/C=C/C=C/c1ccc2c(c1)OCO2)N1CCCC1 [LJ-2487, (2E,4E)-5-(benzo[d][1,3]dioxol-5-yl)-1-(pyrrolidin-1-yl)penta-2,4-dien-1-one]
differentiation of the preadipocytes 3T3L1 [1]: reduced the differentiation of the preadipocytes 3T3L1 in a concentration-dependent manner

COc1ccc(OC)c(/C=C/C=C/C(=O)N2CCCCC2)c1 [LJ-2488, (2E,4E)-5-(2,5-dimethoxy-phenyl)-1-(piperidin-1-yl) penta-2,4-dien-1-one]
differentiation of the preadipocytes 3T3L1 [1]: reduced the differentiation of the preadipocytes 3T3L1 in a concentration-dependent manner

COc1cccc(/C=C/C=C/C(=O)N2CCCCC2)c1OC [LJ-2489, (2E,4E)-5-(2,3-dimethoxy-phenyl)-1-(piperidin-1-yl) penta-2,4-dien-1-one]
differentiation of the preadipocytes 3T3L1 [1]: reduced the differentiation of the preadipocytes 3T3L1 in a concentration-dependent manner
reduction of area under the curve (ACU) for blood glucose concentrations as compared with HFD ([2]; 2 g glucose/kg oral): 17%

COc1ccc(/C=C/C=C/C(=O)N2CCCCC2)c(OC)c1 [LJ-2490, (2E,4E)-5-(2,4-dimethoxy-phenyl)-1-(piperidin-1-yl) penta-2,4-dien-1-one]
differentiation of the preadipocytes 3T3L1 [1]: reduced the differentiation of the preadipocytes 3T3L1 in a concentration-dependent manner

COc1ccc(/C=C/C=C/C(=O)N2CCCCC2)cc1OC [LJ-2491, (2E,4E)-5-(3,4-dimethoxy-phenyl)-1-(piperidin-1-yl) penta-2,4-dien-1-one]
differentiation of the preadipocytes 3T3L1 [1]: reduced the differentiation of the preadipocytes 3T3L1 in a concentration-dependent manner

COc1cc(/C=C/C=C/C(=O)N2CCCCC2)cc(OC)c1 [LJ-2492, (2E,4E)-5-(3,5-dimethoxy-phenyl)-1-(piperidin-1-yl) penta-2,4-dien-1-one]
differentiation of the preadipocytes 3T3L1 [1]: reduced the differentiation of the preadipocytes 3T3L1 in a concentration-dependent manner

Cc1ccc(C)c(/C=C/C=C/C(=O)N2CCCCC2)c1 [LJ-2497, Trans-(2E,4E)-5-(2,5-dimethylphenyl)-1-(piperidin-1-yl) penta-2,4-dien-1-one]
differentiation of the preadipocytes 3T3L1 [1]: reduced the differentiation of the preadipocytes 3T3L1 in a concentration-dependent manner

Cc1ccc(C)c(/C=C/C=C\C(=O)N2CCCCC2)c1 [LJ-2498, Cis-(2E,4E)-5-(2,5-dimethyl-phenyl)-1-(piperidin-1-yl) penta-2,4-dien-1-one]
decreased plasma activity of ALT as compared to HFD [3]: 27%
decreased plasma activity of AST as compared to HFD [3]: 15%
lower plasma level of free fatty acid as compared to HFD [3]: 25%
lower plasma level of total cholesterol as compared to HFD [3]: 20%
lower plasma level of triglyceride as compared to HFD [3]: 21%
differentiation of the preadipocytes 3T3L1 [1]: reduced the differentiation of the preadipocytes 3T3L1 in a concentration-dependent manner
insulin resistance improving effect versus control drugs metformin and sibutramine [2]: more excellent than those of control drugs
blood glucose concentration after oral glucose as compared with HFD ([2]; 2 g glucose/kg, 15, 30, 60, 120 min): further reduced over all the time zones
reduction of fasting blood glucose as compared with HFD ([2]; 6 hours fasting): 20%
decrease of liver weight compared to HFD [4]: 23%
decreased level of cholesterol in liver tissue as compared to HFD [4]: 41%
decreased level of triglyceride in liver tissue as compared to HFD [4]: 29%
liver tissue appearance as compared to HFD ([4]; images): darker and smaller liver tissue
epididymal fat weight per body weight as compared to HFD [5]: significantly lower
lower accumulated body weight gain as compared to HFD [5]: 23%
lower total visceral fat weight compared to HFD [5]: 28%
mesenteric fat weight per body weight as compared to HFD [5]: significantly lower
perirenal fat weight per body weight as compared to HFD [5]: significantly lower
retroperitoneal fat weight per body weight as compared to HFD [5]: significantly lower
visceral fat weight as compared to HFD group [5]: significantly lower

O=c1[nH]c2ccc(/N=C/c3cc4c(cc3Br)OCO4)cc2[nH]1 [LJ-2527]
differentiation of the preadipocytes 3T3L1 [1]: reduced the differentiation of the preadipocytes 3T3L1 in a concentration-dependent manner

O=c1[nH]c2ccc(/N=C/c3c(Br)ccc4c3OCO4)cc2[nH]1 [LJ-2529]
decrease of FER (feed efficiency ratio) compared with HFD ([6]; 0.05% in high-fat diet): 60%
decrease of body weight gain as compared to HFD ([6]; 0.05% in high-fat diet): 60%
epididymal fat-pad weight as compared to HFD ([6]; 0.05% in high-fat diet): significantly reduced
mesenteric fat-pad weight as compared to HFD ([6]; 0.05% in high-fat diet): significantly reduced
perirenal fat-pad weight as compared to HFD ([6]; 0.05% in high-fat diet): significantly reduced
retroperitoneal fat-pad weight as compared to HFD ([6]; 0.05% in high-fat diet): significantly reduced
reduction of total visceral fat weight versus HFD ([6]; 0.05% in high-fat diet, P<0.001): 15%
decrease of daily food intake [6]: 24%
differentiation of the preadipocytes 3T3L1 [1]: reduced the differentiation of the preadipocytes 3T3L1 in a concentration-dependent manner

S=c1[nH]c2ccc(/N=C/c3c(Br)ccc4c3OCO4)cc2[nH]1 [SKKU-S-02]
differentiation of the preadipocytes 3T3L1 [1]: reduced the differentiation of the preadipocytes 3T3L1 in a concentration-dependent manner

O=C(/C=C/C=C/c1ccc2c(c1)OCO2)N1CCCCC1 [piperine, Piperine]
body weight gain change (signed) versus HFD ([6]; piperine-supplemented high-fat diet): −48%
decrease of daily food intake [6]: 27%
